Experimental findings from the supplement of paper PMC9265050, “Inhibition of RNA Binding in SND1 Increases the Levels of miR-1-3p and Sensitizes Cancer Cells to Navitoclax” (Cancers, 2022) are described below.

The test system of this experiment is SW480. Nature of the experiment: drug sensitivity score (DSS, integrated dose-response area); higher = more sensitive (stronger viability reduction); extreme values may be limits of the assay. In short, it runs like this: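 SW480 cells stably carrying doxycycline-inducible control or SND1-targeting shRNA were induced with 0.1 µg/mL doxycycline for 7 days. They were then plated at 1000 cells per well in 384-well plates holding 525 commercially available small-molecule inhibitors at five concentrations. Viability was read with CellTiter-Glo after 72 h. The drug sensitivity score integrates the area under a fitted non-linear dose–response model.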

[1] abbreviates: shRNA: SND1 shRNA1 (SND1 silenced).
Where [2] appears, read: shRNA: SND1 shRNA2 (SND1 silenced).
Setting [3] is: shRNA: control shRNA (non-targeting).

With `CN1CCC(COc2cnc(-c3cccc(Cn4nc(-c5cccc(C#N)c5)ccc4=O)c3)nc2)CC1`, the drug sensitivity score is, setting by setting: under setting [1], 0 DSS; under setting [2], 0 DSS; under setting [3], 0 DSS.
As for `COc1cc2c(NC3CCN(C(C)C)CC3)nc(C3CCCCC3)nc2cc1OCCCN1CCCC1` [UNC0638], the drug sensitivity score is, setting by setting: under setting [1], 9.1 DSS; under setting [2], 6.5 DSS; under setting [3], 9.7 DSS.
The corresponding values for `Cn1c(=O)n(-c2ccc(C(C)(C)C#N)cc2)c2c3cc(-c4cnc5ccccc5c4)ccc3ncc21` [Dactolisib] are 17.8 DSS, 17.8 DSS and 11.3 DSS.
In the same order, the values of `Nc1ccn([C@@H]2O[C@H](CO)[C@@H](O)C2(F)F)c(=O)n1` [Gemcitabine] are 15.8 DSS, 6.1 DSS and 13.4 DSS.
Molecule `O=C1NC(=O)/C(=C/c2ccc3nccc(-c4ccncc4)c3c2)S1` returned a drug sensitivity score under setting [1] of 7.6 DSS and a drug sensitivity score under setting [3] of 5.9 DSS.
Take `CC1(C)CCC(CN2CCN(c3ccc(C(=O)NS(=O)(=O)c4ccc(NCC5CCOCC5)c([N+](=O)[O-])c4)c(Oc4cnc5[nH]ccc5c4)c3)CC2)=C(c2ccc(Cl)cc2)C1` [Venetoclax]: the drug sensitivity score runs as follows: under setting [1], 0 DSS; under setting [2], 0 DSS; under setting [3], 0 DSS.
Take `CON(C)C(=O)N1N=C(c2cc(F)ccc2F)S[C@@]1(CCCN)c1ccccc1` [Filanesib]: the drug sensitivity score under setting [1] amounted to 16.8 DSS, the drug sensitivity score under setting [2] came out at 16 DSS and the drug sensitivity score under setting [3] stood at 16.7 DSS.
In the same order, the values of `O=C(O)c1ccc(CN2CCC(CN[C@@H]3C[C@H]3c3ccccc3)CC2)cc1` are 0 DSS, 8 DSS and 1.2 DSS.
In the same order, the values of `COc1cc2ncnc(Nc3ccc(F)c(Cl)c3)c2cc1NC(=O)/C=C/CN1CCCCC1` [Dacomitinib] are 3.3 DSS, 7 DSS and 10.2 DSS.
As for `COc1cc2c(Oc3ccc(NC(=O)C4(C(=O)Nc5ccc(F)cc5)CC4)cc3F)ccnc2cc1OCCCN1CCOCC1` [Foretinib], the drug sensitivity score by setting is: under setting [1], 4.1 DSS; under setting [2], 4.2 DSS; under setting [3], 5 DSS.
In the same order, the values of `CN(C)CCOc1ccc(/C(=C(/CCCl)c2ccccc2)c2ccccc2)cc1` [Toremifene] are 2.6 DSS, 1.7 DSS and 3.1 DSS.
In the same order, the values of `COC1=CC(c2cc3ccccc3[nH]2)=N/C1=C\c1[nH]c(C)cc1C` [Obatoclax] are 2.5 DSS, 0 DSS and 0.1 DSS.
`O=C(O)c1ccc(-c2c[nH]c3ncc(-c4ccccc4)cc23)cc1C1CCCC1` gave a drug sensitivity score under setting [1] of 1.9 DSS, a drug sensitivity score under setting [2] of 3.3 DSS and a drug sensitivity score under setting [3] of 3.4 DSS.
In the same order, the values of `COc1cc(Br)c(Nc2nc(-c3c(C)nc4ncccn34)cs2)c(Br)c1` [PTC-209] are 6.7 DSS, 2.2 DSS and 7.1 DSS.
In the same order, the values of `Cc1cccc(CC(=O)N2CCc3c2ccc(-c2cn(C)c4ncnc(N)c24)c3F)n1` are 0 DSS, 3.3 DSS and 0 DSS.
The corresponding values for `NC(=O)Nc1cc(-c2cccc(F)c2)sc1C(=O)N[C@H]1CCCNC1` [AZD7762] are 7.8 DSS, 8.6 DSS and 8.7 DSS.
Turning to `Clc1ccccc1C(c1ccccc1)(c1ccccc1)n1cccn1` [TRAM-34], the drug sensitivity score came to 0 DSS under setting [1], 0 DSS under setting [2] and 1.3 DSS under setting [3].
On to `CC(C)c1c(C(=O)Nc2ccccc2)c(-c2ccccc2)c(-c2ccc(F)cc2)n1CC[C@@H](O)C[C@@H](O)CC(=O)O` [Atorvastatin], for which the drug sensitivity score came out at 4.9 DSS under setting [1] and 7.6 DSS under setting [3].
For the molecule `Cc1cc(Nc2cc(CN3CCOCC3)c3nc(C)c(Cc4ccc(Cl)cc4F)n3n2)n[nH]1` [Gandotinib], the drug sensitivity score worked out at 6.9 DSS under setting [1], 4.1 DSS under setting [2] and 7 DSS under setting [3].
In the same order, the values of `C/C(=C\c1csc(C)n1)[C@@H]1C[C@@H]2O[C@]2(C)CCC[C@H](C)[C@H](O)[C@@H](C)C(=O)C(C)(C)[C@@H](O)CC(=O)O1` [Patupilone] are 17.9 DSS, 18.3 DSS and 18.4 DSS.
In the same order, the values of `CC(O)(CS(=O)(=O)c1ccc(F)cc1)C(=O)Nc1ccc(C#N)c(C(F)(F)F)c1` (configuration not stated) [Bicalutamide] are 0.4 DSS, 0.3 DSS and 1.4 DSS.
Turning to `COc1cc(OC2CCN(C)CC2)ccc1Nc1ncc2c(n1)n(C1CCCC1)c(=O)n2C` [AZ 3146], the drug sensitivity score is, setting by setting: under setting [1], 10.9 DSS; under setting [2], 10.6 DSS; under setting [3], 9.5 DSS.
The corresponding values for `C#Cc1cccc(Nc2ncnc3cc(OCCOC)c(OCCOC)cc23)c1` [Erlotinib] are 2.6 DSS, 2.5 DSS and 2.4 DSS.
The corresponding values for `Clc1ccc(C(c2ccccc2Cl)C(Cl)Cl)cc1` (configuration not stated) [Mitotane] are 0 DSS, 0 DSS and 0 DSS.
The corresponding values for `COc1cc2/c(=N/c3ccc(Br)cc3F)nc[nH]c2cc1OCC1CCN(C)CC1` [Vandetanib] are 2.1 DSS, 5.8 DSS and 5.9 DSS.
As for `CN1CC[C@@H](NC(=O)Nc2ccc(C#N)cc2)C[C@@H]1c1nc2ccccc2[nH]1` [Glasdegib], the drug sensitivity score runs as follows: under setting [1], 0 DSS; under setting [2], 0 DSS; under setting [3], 5.6 DSS.
Turning to `NC(=O)N1CCC(CC(=O)N2CCC([C@H]3c4ncc(Br)cc4CCc4cc(Cl)cc(Br)c43)CC2)CC1` [Lonafarnib], the drug sensitivity score amounted to 6.9 DSS under setting [1], 8.8 DSS under setting [2] and 4.9 DSS under setting [3].
In the same order, the values of `CNc1ncc2cc(-c3cc(NC(=O)NCCC(C)(C)C)c(F)cc3C)c(C)nc2n1` are 13.4 DSS, 6.6 DSS and 9.7 DSS.
Regarding `CC[C@H](C)C(=O)O[C@H]1C[C@@H](C)C=C2C=C[C@H](C)[C@H](CC[C@@H]3C[C@@H](O)CC(=O)O3)[C@H]21` [Lovastatin], the drug sensitivity score under setting [1] worked out at 0 DSS and the drug sensitivity score under setting [3] is 0 DSS.
As to `Cc1nc(N)sc1-c1ccnc(Nc2ccc(N3CCOCC3)cc2)n1` [CYC-116], the drug sensitivity score under setting [1] is 9.3 DSS and the drug sensitivity score under setting [3] was 8.8 DSS.
In the case of `Cc1cc2c(C(=O)NC[C@H](C)c3ccccc3)c(O)c(O)cc2c(O)c1-c1c(C)cc2c(C(=O)NC[C@H](C)c3ccccc3)c(O)c(O)cc2c1O` [Sabutoclax], the drug sensitivity score by setting is: under setting [1], 14.2 DSS; under setting [2], 13.3 DSS; under setting [3], 12.7 DSS.
The corresponding values for `O=C(CCCCCCNC(=O)c1cnc(N(c2ccccc2)c2ccccc2)nc1)NO` [Rocilinostat] are 4 DSS, 7 DSS and 8.4 DSS.
In the same order, the values of `O=C(/C=C\n1cnc(-c2cc(C(F)(F)F)cc(C(F)(F)F)c2)n1)NNc1cnccn1` [Selinexor] are 19.5 DSS, 19.3 DSS and 20.7 DSS.
In the same order, the values of `C=CC(=O)Nc1cc(Nc2nccc(-c3cn(C)c4ccccc34)n2)c(OC)cc1N(C)CCN(C)C` [Osimertinib] are 8.5 DSS, 3.6 DSS and 9.6 DSS.
For the molecule `Nc1ncnc2c1nc(Cl)n2[C@@H]1O[C@H](CO)[C@@H](O)[C@H]1O` [8-chloro-adenosine], the drug sensitivity score reads like this: under setting [1], 13.5 DSS; under setting [2], 13.3 DSS; under setting [3], 11.3 DSS.
Regarding `Cc1cc(Nc2cc(N3CCN(C)CC3)nc(Sc3ccc(NC(=O)C4CC4)cc3)n2)n[nH]1` [Tozasertib], the drug sensitivity score amounted to 8.6 DSS under setting [1] and 4.8 DSS under setting [3].
`CN(C)c1nc(N(C)C)nc(N(C)C)n1` [Altretamine] showed a drug sensitivity score under setting [1] of 0 DSS, a drug sensitivity score under setting [2] of 0 DSS and a drug sensitivity score under setting [3] of 0 DSS.
As for `O=c1[nH]cc(F)c(=O)[nH]1` [Fluorouracil], the drug sensitivity score runs as follows: under setting [1], 0.5 DSS; under setting [2], 0 DSS; under setting [3], 1.1 DSS.
In the same order, the values of `CCn1c(=O)c(-c2cc[nH]n2)cc2c(C)nc(N)nc21` [Voxtalisib] are 7.4 DSS, 6.5 DSS and 5.7 DSS.
Regarding `O[C@H]1CC[C@H](Nc2ncc3nc(Nc4c(F)cc(F)cc4F)n([C@H]4CCOC4)c3n2)CC1` [Tanzisertib], the drug sensitivity score runs as follows: under setting [1], 2.9 DSS; under setting [3], 3.4 DSS.
As to `NC(=O)NO` [Hydroxyurea], the drug sensitivity score is, setting by setting: under setting [1], 0 DSS; under setting [2], 0 DSS; under setting [3], 0.2 DSS.
Regarding `O=C(Nc1ccncc1)C(=O)c1cn(Cc2ccc(Cl)cc2)c2ccccc12` [Indibulin], the drug sensitivity score reads like this: under setting [1], 8.8 DSS; under setting [2], 7.7 DSS; under setting [3], 8.8 DSS.
For the molecule `CCn1c(-c2nonc2N)nc2c(C#CC(C)(C)O)ncc(OC[C@H]3CCCNC3)c21`, the drug sensitivity score is 0.9 DSS under setting [1] and 2 DSS under setting [3].
